From patent US9221822B2, “Thiazolopyrimidine modulators as immunosuppressive agents” (Katholieke Universiteit Leuven, K.U.Leuven R&D, priority 2009, dated 2015)

tested on: Human peripheral blood mononuclear cells (PBMCs) as Responder cells, RPMI 1788 Stimulator cells; test: Mixed Lymphocyte Reaction (MLR) test; type: cell-based; details: Homo sapiens, RPMI-1788, lowest concentration giving 50% inhibition of the MLR; 6 days coculture, 3H-thymidine incorporation
In short: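 Human PBMC responders (0.12×10^6) were cocultured 6 days with mitomycin C-treated RPMI 1788 stimulators (0.045×10^6) and compound in RPMI 1640 with 10% FCS, in triplicate. A ^3H-thymidine pulse on day 5, harvested 18 h later, measured proliferation (cpm), converted to % inhibition versus a compound-free MLR.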

In order of rising IC50:
1. N#Cc1ccc(NC(=O)N2CCN(c3nc(N)nc4sc(-c5cccnc5)nc34)CC2)cc1 [Example 279, 4-(5-amino-2-(pyridin-3-yl)thiazolo[5,4-d]pyrimidin-7-yl)-N-(4-cyanophenyl)piperazine-1-carboxamide]  0.1 µM
2. CSc1nc2c(N3CCN(C(=O)COc4ccc(Cl)cc4)CC3)nc(N)nc2n1C [Example 428, 1-(4-(2-amino-9-methyl-8-(methylthio)-9H-purin-6-yl)piperazin-1-yl)-2-(4-chlorophenoxy)ethanone]  0.3 µM
3. Cc1cccc(NC(=O)N2CCN(c3nc(N)nc4sc(Cc5ccc(F)cc5)nc34)CC2)c1 [Example 44, 4-(5-amino-2-(4-fluorobenzyl)thiazolo[5,4-d]pyrimidin-7-yl)-N-m-tolylpiperazine-1-carboxamide]  0.4 µM
4. COc1ccc(-c2nc3c(N4CCN(C(=O)COc5ccc(Cl)cc5)CC4)nc(N)nc3[nH]2)cc1OC [Example 390, 1-(4-(2-amino-8-(3,4-dimethoxyphenyl)-9H-purin-6-yl)piperazin-1-yl)-2-(4-chlorophenoxy)ethanone]  0.53 µM
5. CSc1nc2c(N3CCN(C(=O)COc4ccc(Cl)cc4)CC3)nc(N)nc2[nH]1 [Example 424, 1-(4-(2-amino-8-(methylthio)-9H-purin-6-yl)piperazin-1-yl)-2-(4-chlorophenoxy)ethanone]  0.61 µM
6. Nc1nc(N2CCN(C(=O)COc3ccc(Cl)cc3)CC2)c2nc(CCc3ccc(F)cc3)oc2n1 [Example 172, 1-(4-(5-amino-2-(4-fluorophenethyl)oxazolo[5,4-d]pyrimidin-7-yl)piperazin-1-yl)-2-(4-chlorophenoxy)ethanone]  0.8 µM
7. Nc1nc(N2CCN(C(=O)COc3ccccc3)CC2)c2nc(-c3ccc(F)cc3)[nH]c2n1 [Example 401, 1-(4-(2-amino-8-(4-fluorophenyl)-9H-purin-6-yl)piperazin-1-yl)-2-phenoxyethanone]  1.09 µM
8. COc1ccc(OCC(=O)N2CCN(c3nc(N)nc4sc(CCCc5ccc(F)cc5)nc34)CC2)cc1 [Example 291, 1-(4-(5-amino-2-(3-(4-fluorophenyl)propyl)thiazolo[5,4-d]pyrimidin-7-yl)piperazin-1-yl)-2-(4-methoxyphenoxy)ethanone]  1.11 µM
9. COCc1nc2c(N3CCN(C(=O)COc4ccc(Cl)cc4)CC3)nc(N)nc2o1 [Example 186, 5-amino-7-[4-(4-chlorophenoxyacetyl)piperazin-1-yl]-2-methoxylmethyloxazolo[5,4-d]pyrimidine]  1.83 µM
10. Cc1cccc(NC(=O)N2CCN(c3nc(N)nc4oc(CCc5ccc(F)cc5)nc34)CC2)c1 [Example 196, 5-amino-2-[2-(4-fluorophenyl)ethyl]-7-(4-m-tolylcarbamoylpiperazin-1-yl)-oxazolo[5,4-d]pyrimidine]  3.97 µM
11. Nc1nc(N2CCN(C(=O)COc3ccc(Cl)cc3)CC2)c2nc(CCc3ccc(F)cc3)sc2n1 [Example 49, 1-(4-(5-amino-2-(4-fluorophenethyl)-thiazolo[5,4-d]pyrimidin-7-yl)piperazin-1-yl)-2-(4-chlorophenoxy)ethanone]  4.4 µM
12. CCCCCc1nc2c(N3CCN(C(=O)COc4ccc(Cl)cc4)CC3)nc(N)nc2o1 [Example 188, 5-amino-7-[4-(4-chlorophenoxyacetyl)piperazin-1-yl]-2-pentyloxazolo[5,4-d]pyrimidine]  4.43 µM
13. Nc1nc(N2CCN(C(=O)Nc3ccc(Cl)cc3)CC2)c2cc(-c3ccccc3)sc2n1 [Example 331, 4-(2-amino-6-phenylthieno[2,3-d]pyrimidin-4-yl)-N-(4-chlorophenyl)piperazine-1-carboxamide]  6.7 µM
14. CCCCCc1nc2c(N3CCN(C(=O)COc4ccc(OC)cc4)CC3)nc(N)nc2s1 [Example 296, 1-(4-(5-amino-2-pentylthiazolo[5,4-d]pyrimidin-7-yl)piperazin-1-yl)-2-(4-methoxyphenoxy)ethanone]  7.59 µM
